Reference: ChEMBL document CHEMBL2150847, “Scaffold hopping strategy toward original pyrazolines as selective CB₂ receptor ligands” (Eur J Med Chem, 2012)
Calls of active or inactive are those of the source. The rule behind the calls is not given here.

How the values were obtained:
[1] = molecular target: Cannabinoid receptor 1 (Homo sapiens, UniProt P21554); experiment: Displacement of [3H]CP55940 from human CB1 receptor expressed in CHO cell membranes after 1 hr by scintillation counting
[2] = molecular target: T1, Cannabinoid receptor 2 (Homo sapiens, UniProt P34972); experiment: Displacement of [3H]CP55940 from human CB2 receptor expressed in CHO cell membranes after 1 hr by scintillation counting
T1 sequence (P34972 whole entry): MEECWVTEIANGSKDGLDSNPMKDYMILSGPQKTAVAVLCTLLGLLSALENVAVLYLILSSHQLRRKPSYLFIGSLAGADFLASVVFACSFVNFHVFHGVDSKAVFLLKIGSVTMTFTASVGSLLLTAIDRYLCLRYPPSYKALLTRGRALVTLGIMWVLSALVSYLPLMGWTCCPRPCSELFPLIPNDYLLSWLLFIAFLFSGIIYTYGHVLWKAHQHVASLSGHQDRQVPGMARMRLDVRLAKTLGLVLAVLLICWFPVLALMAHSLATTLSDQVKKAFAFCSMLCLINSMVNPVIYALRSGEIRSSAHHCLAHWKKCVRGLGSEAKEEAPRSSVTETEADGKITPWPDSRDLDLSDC

[3] = organism: Homo sapiens; experiment: Selectivity ratio of Ki for human CB1 receptor to Ki for human CB2 receptor
[4] = molecular target: T1, Cannabinoid receptor 2; experiment: Antagonist activity at human CB2 receptor expressed in CHO cell membranes after 1 hr by [35S]GTPgammaS binding assay; assay type: functional
[5] = molecular target: T1, Cannabinoid receptor 2; experiment: Agonist activity at human CB2 receptor expressed in CHO cell membranes after 1 hr by [35S]GTPgammaS binding assay; assay type: functional
[6] = molecular target: T1, Cannabinoid receptor 2; experiment: Agonist activity at human CB2 receptor expressed in CHO cell membranes after 1 hr by [35S]GTPgammaS binding assay relative to baseline; assay type: functional

Cannabinoid receptor 1, sequence (P21554 whole entry): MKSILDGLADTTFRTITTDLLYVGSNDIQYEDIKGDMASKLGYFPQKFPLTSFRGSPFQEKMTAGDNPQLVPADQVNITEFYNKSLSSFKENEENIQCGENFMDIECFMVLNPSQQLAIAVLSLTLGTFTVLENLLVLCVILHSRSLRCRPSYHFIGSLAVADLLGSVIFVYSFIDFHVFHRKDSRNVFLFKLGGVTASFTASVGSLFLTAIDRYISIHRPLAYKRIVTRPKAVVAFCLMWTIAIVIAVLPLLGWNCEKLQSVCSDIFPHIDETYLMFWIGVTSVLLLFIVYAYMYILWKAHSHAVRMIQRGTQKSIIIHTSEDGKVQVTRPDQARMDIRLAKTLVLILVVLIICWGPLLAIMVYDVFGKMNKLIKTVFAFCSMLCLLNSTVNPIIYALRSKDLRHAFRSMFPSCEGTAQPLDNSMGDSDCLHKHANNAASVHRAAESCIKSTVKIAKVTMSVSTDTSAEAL

| SMILES | Ki [1] [µM] | Ki [2] [nM] | Ratio Ki [3] | Activity [4] | EC50 [5] [nM] | Emax [6] [%] |
| --- | --- | --- | --- | --- | --- | --- |
| O=C(Nc1ccccc1)N1CC(Cc2ccccc2)C(c2ccccc2)=N1 (configuration not stated) | > 3 | > 3000 |  |  |  |  |
| Cc1cc(C2=NN(C(=O)NC3CCCCC3)CC2C2CCCC2)ccc1Cl (configuration not stated) | > 3 | 3640 | 1.2 | Active |  |  |
| Cc1cccc(C2=NN(C(=O)Nc3ccccc3)CC2Cc2ccccc2)c1 (configuration not stated) | > 3 | > 3000 |  |  |  |  |
| Cc1ccc(CC2CN(C(=O)NC3C4(C)CCC(C4)C3(C)C)N=C2c2ccc(Cl)c(C)c2)cc1 (configuration not stated) | > 1 | 251 | > 4 |  | 191 | 163 |
| O=C(Nc1ccccc1)N1CC(Cc2ccccc2)C(c2ccc(Cl)cc2)=N1 (configuration not stated) | > 3 | > 3000 |  |  |  |  |
| O=C(NC1CCCCC1)N1CC(Cc2ccccc2)C(c2ccc(Cl)cc2)=N1 (configuration not stated) | > 3 | > 3000 |  |  |  |  |
| CC(=O)N1CC(Cc2ccccc2)C(c2ccccc2)=N1 (configuration not stated) | > 3 | > 3000 |  |  |  |  |
| Cc1cccc(C2=NN(C(=O)NC3CCCCC3)CC2Cc2ccccc2)c1 (configuration not stated) | > 3 | > 3000 |  |  |  |  |
| Cc1ccc(CC2CN(C(=O)NC3CCCCC3)N=C2c2ccc(Cl)c(C)c2)cc1 (configuration not stated) | > 3 | 385 | > 8 |  | 371 | 187 |
| Cc1cc(C2=NN(C(=O)NC3C4(C)CCC(C4)C3(C)C)CC2Cc2ccccc2)ccc1Cl (configuration not stated) | > 1 | 689 | > 4 |  | 749 | 183 |
| Cc1cc(C2=NN(C(=O)Nc3ccccc3)CC2Cc2ccccc2)ccc1Cl (configuration not stated) | > 3 | > 3000 |  |  |  |  |
| O=C(NC1CCCCC1)N1CC(Cc2ccccc2)C(c2ccccc2)=N1 (configuration not stated) | > 3 | 504 | > 6 |  | 297 | 136 |
| Cc1ccc(CC2CN(C(=O)Nc3ccccc3)N=C2c2ccc(Cl)c(C)c2)cc1 (configuration not stated) | > 3 | > 1000 |  |  |  |  |
| Cc1cc(C2=NN(C(=O)NC3CCCCC3)CC2Cc2ccccc2)ccc1Cl (configuration not stated) | > 3 | > 1000 |  |  |  |  |
